Results reported in patent US20180273531A1, “PYRIMIDINE COMPOUND AND MEDICAL USE THEREOF” (Japan Tobacco Inc., priority 2004, published 2018).

How the values were obtained:
[1] = test system: colorectal cancer cell line HT-29 cells; experiment: Growth inhibitory effect against cancer cell lines (3H-thymidine uptake), HT-29; assay type: cell-based; conditions: Homo sapiens, HT-29, inhibition of 3H-thymidine uptake; test substance 18 hrs, then 3H-thymidine 6 hrs; triplicate
Procedure, shortened: (§1)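 Cells seeded at 1.0×10^4/well, grown 24 hrs, then exposed to compound in DMSO for 18 hrs before 6 hrs pulse with ^3H-thymidine (0.25 μCi/well). Harvested cell-incorporated radioactivity counted; IC50 is the concentration halving uptake versus DMSO control, triplicate.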

[2] = test system: p15 protein; experiment: Evaluation of p15 induction activity (Western blotting); assay type: cell-based; conditions: test substance 0.1 μM, 24 hrs, ACHN cells or HT-29 cells, compared to DMSO, n=2
Procedure, shortened: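 p15 protein quantified by densitometry of anti-p15 Western blots (10 μg protein per lane, mean of n=2). Samples came from HT-29 or ACHN cells given 0.1 μM compound for 24 h after 24 h plating, with DMSO as control.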

[3] = test system: ACHN cells or HT-29 cells; experiment: Cell cycle analysis (flow cytometry, CycleTEST PLUS); assay type: cell-based; conditions: test substance less than 10 μM, 24 hrs, compared to DMSO, n=2, read-out: CELL RATIO OF G0/G1 PHASE
Method: ACHN cells or HT-29 cells were cultured in a 6 well plate at 2.5×10^5 cells/1.8 mL/well for 24 hrs, then a test substance (less than 10 μM) dissolved in DMSO was added. After 24 hrs, cells were detached using trypsin-EDTA and the DNA content of single cell was analyzed by flow cytometry method using a CycleTEST PLUS (BECKTON DICKINSON) kit, and the proportion of the cells in the G0/G1 phase·S phase·G2/M phase was calculated. As a control, DMSO was used and the test was performed with n=2.

[4] = test system: Renal cancer cell line ACHN cell; experiment: Growth inhibitory effect against cancer cell lines (3H-thymidine uptake), ACHN; assay type: cell-based; conditions: Homo sapiens, ACHN
Procedure, shortened: as §1

[5] = test system: p27 protein; experiment: p27 protein induction test (Western blotting); assay type: cell-based; conditions: test substance (0.1 1M), 24 hrs, ACHN cells or HT-29 cells, compared to DMSO, n=2
Procedure, shortened: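 ACHN or HT-29 cells grown 24 h, then treated with test substance at […] (DMSO) for 24 h. Lysates normalised by protein content and probed by Western blot with anti-p27 antibody. Band density quantified by densitometer against DMSO control, n=2 averaged.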

[6] = test system: HT-29 cells; experiment: Evaluation on the nude-mouse xenograft model; assay type: in vivo, mouse (Balb/c-nu/nu); conditions: HT-29, po, 240 h, 30 mg/kg orally twice a day for 10 days, tumor volume, treated vs vehicle group, n=6-8, read-out: T/C(%)
Method: HT-29 cells (5.0×10^6 cells/100 μL/head, suspended in HBSS (Hanks' solution)) in the logarithmic growth phase were implanted in a mouse (Balb/c-nu/nu) at the right lateral abdomen under ether anesthesia. After 5 days of implantation, the long diameter and short diameter of the tumor were measured, and the mice were divided into groups such that each group has an equivalent average tumor volume. For grouping, a grouping soft (general grouping system (Visions) was used. From the next day of the grouping, a test substance suspended in 0.5% MC (methyl cellulose) was repeatedly orally administered twice a day for 10 days (30 mg/kg). The tumor volume was measured twice a week and used as an index of antitumor activity. As a control, 0.5% MC was used and the test was performed with n=6-8.
The index (T/C (%)) of the antitumor activity was calculated according to the following formula.
T/C(%)=(The average tumor volume of the group treated with a test substance)/(The average tumor volume of the Vehicle group)×100
The tumor volume was calculated according to the following formula.
Tumor volume(mm^3)=L×W×W/2
(L: long diameter (mm) of tumor, W: short diameter (mm) of tumor)

[7] = test system: TNF-α or IL-6; experiment: Evaluation on inflammatory cytokine production (LPS-stimulated PBMC); assay type: cell-based; conditions: human PBMC stimulated with LPS
[8] = test system: mouse (DBA/1) collagen arthritis; conditions: 17 days after boost, 1 mg/kg oral once a day for 38 days; medium group 2.2; p<0.001; n=16
Method: Bovine type II collagen (100 μg) was resuspended with Freund's complete adjuvant and intracutaneously administered (initial immunization) to the tail head of mouse (DBA/1). Three weeks later, the same collagen was given to the tail head as boost, whereby multiple arthritis was induced. The test substance was oral administered forcibly once a day for 38 days from immediately before the initial immunization, and arthritis score after boost was calculated twice a week to examine the arthritis onset suppressing effect. For arthritis scores, the level of swelling of each of the four limbs of the mice was scored in 4 levels, and the average of the scores of four limbs was taken as the arthritis score of each individual. The test was performed with n=16.

Compound | IC50 [1] [nM] | fold induction at 0.1 µM [2] | fold induction [3] | IC50 [4] [nM] | fold induction at 0.1 µM [5] | response vs control in vivo at 30 mg/kg [6] [%] | production of TNF-α or IL-6 [7] | fold induction at up to 10 µM [3] | arthritis score [8]
CN(C)c1ccc(Nc2cc(=O)n(C)c3c2c(=O)n(-c2ccccc2)c(=O)n3-c2ccccc2)cc1 [Example 1-7] | 100 to 1000 | ≥ 1.5 | ≥ 1.2 |  |  |  |  |  | 
Cn1c(=O)cc(Nc2ccc(Br)cc2)c2c(=O)n(-c3ccccc3)c(=O)n(-c3ccccc3)c21 [Example 1-11] | 100 to 1000 | ≥ 1.5 | ≥ 1.2 |  |  |  |  |  | 
Cc1cc(N(C)C)ccc1Nc1cc(=O)n(C)c2c1c(=O)n(-c1ccccc1)c(=O)n2-c1ccccc1 [Example 1-55] | 100 to 1000 | ≥ 1.5 | ≥ 1.2 |  |  |  |  |  | 
CN(C)c1ccc(Nc2cc(=O)n(C)c3c2c(=O)n(C2CC2)c(=O)n3-c2ccccc2)cc1 [Example 1-88] | 100 to 1000 | ≥ 1.5 | ≥ 1.2 | 100 to 1000 |  |  |  |  | 
Cn1c(=O)cc(Nc2ccc(Br)cc2)c2c(=O)n(C3CC3)c(=O)n(-c3ccccc3)c21 [Example 1-89] | 10 to 100 | ≥ 1.5 | ≥ 1.2 | 100 to 1000 | ≥ 1.5 |  |  |  | 
Cc1ccccc1-n1c(=O)n(C)c(=O)c2c(Nc3ccc(Br)cc3)cc(=O)n(C)c21 [Example 1-95] | 100 to 1000 | ≥ 1.5 | ≥ 1.2 |  |  |  |  |  | 
CCn1c(=O)c2c(Nc3ccc(N(C)C)cc3)cc(=O)n(C)c2n(-c2ccccc2)c1=O [Example 1-97] | 100 to 1000 | ≥ 1.5 | ≥ 1.2 |  |  |  |  |  | 
Cc1ccccc1-n1c(=O)n(C)c(=O)c2c(Nc3ccc(N(C)C)cc3)cc(=O)n(C)c21 [Example 1-99] | 100 to 1000 | ≥ 1.5 | ≥ 1.2 |  |  |  |  |  | 
Cn1c(=O)cc(Nc2ccc(Cl)cc2)c2c(=O)n(C3CC3)c(=O)n(-c3ccccc3F)c21 [Example 1-100] | 100 to 1000 | ≥ 1.5 | ≥ 1.2 |  |  |  |  |  | 
COc1ccccc1-n1c(=O)n(C2CC2)c(=O)c2c(Nc3ccc(Cl)cc3)cc(=O)n(C)c21 [Example 1-104] |  | ≥ 1.5 | ≥ 1.2 |  |  |  |  |  | 
C#Cc1ccc(Nc2c3c(=O)n(C4CC4)c(=O)n(-c4cccc(NS(C)(=O)=O)c4)c3c(C)c(=O)n2C)c(F)c1 [Example 3-8] | < 10 | ≥ 1.5 |  | 10 to 100 |  | 27 |  |  | 
CC(=O)Nc1cccc(-n2c(=O)n(C3CC3)c(=O)c3c(Nc4ccc(I)cc4F)n(C)c(=O)c(C)c32)c1 [Example 4-1, N-{3-[3-cyclopropyl-5-(2-fluoro-4-iodophenylamino)-6,8-dimethyl-2,4,7-trioxo-3,4,6,7-tetrahydro-2H-pyrido[4,3-d]pyrimidin-1-yl]-phenyl}-acetamide] | < 10 |  |  | < 10 |  | 3 | suppressed |  | 
C#Cc1ccc(Nc2c3c(=O)n(C4CC4)c(=O)n(-c4cccc(NC(C)=O)c4)c3c(C)c(=O)n2C)c(F)c1 [Example 4-3, N-{3-[3-cyclopropyl-5-(4-ethynyl-2-fluorophenylamino)-6,8-dimethyl-2,4,7-trioxo-3,4,6,7-tetrahydro-2H-pyrido[4,3-d]pyrimidin-1-yl]phenyl}acetamide] | < 10 | ≥ 1.5 |  | 10 to 100 | ≥ 1.5 |  |  | ≥ 1.2 | 
CC(=O)Nc1cccc(-n2c(=O)n(C)c(=O)c3c(Nc4ccc(I)cc4F)n(C)c(=O)c(C)c32)c1 [Example 4-15] | < 10 | ≥ 1.5 |  | 10 to 100 | ≥ 1.5 | 31 |  |  | 
Cc1c(=O)n(C)c(Nc2ccc(I)cc2F)c2c(=O)n(C)c(=O)n(-c3cccc(NS(C)(=O)=O)c3)c12 [Example 4-16, N-{3-[5-(2-fluoro-4-iodophenylamino)-3,6,8-trimethyl-2,4,7-trioxo-3,4,6,7-tetrahydro-2H-pyrido[4,3-d]pyrimidin-1-yl]phenyl}methanesulfonamide] | < 10 | ≥ 1.5 |  | < 10 | ≥ 1.5 | 10 | suppressed | ≥ 1.2 | 
C#Cc1ccc(Nc2c3c(=O)n(C)c(=O)n(-c4cccc(NS(C)(=O)=O)c4)c3c(C)c(=O)n2C)c(F)c1 [Example 4-49] | < 10 | ≥ 1.5 |  | 10 to 100 | ≥ 1.5 | 35 |  |  | 
Cc1c(=O)n(C)c(Nc2ccc(I)cc2F)c2c(=O)n(C3CC3)c(=O)n(-c3cccc(NS(N)(=O)=O)c3)c12 [Example 4-54] | < 10 | ≥ 1.5 |  | < 10 | ≥ 1.5 | 11 |  |  | 
Cc1c(=O)n(C)c(Nc2ccc(I)cc2F)c2c(=O)n(C3CC3)c(=O)n(-c3ccc(NS(C)(=O)=O)cc3)c12 [Example 4-70] | < 10 | ≥ 1.5 |  | 10 to 100 | ≥ 1.5 | 31 |  | ≥ 1.2 | 
Cc1c(=O)n(C)c(Nc2ccc(I)cc2F)c2c(=O)n(C3CC3)c(=O)n(-c3cccc(NC(=O)CO)c3)c12 [Example 4-82] | < 10 | ≥ 1.5 |  | 10 to 100 | ≥ 1.5 |  |  | ≥ 1.2 | 
Cc1c(=O)n(C)c(Nc2ccc(I)cc2F)c2c(=O)n(C3CC3)c(=O)n(-c3ccc(S(N)(=O)=O)cc3)c12 [Example 4-104] | < 10 | ≥ 1.5 |  | < 10 | ≥ 1.5 |  |  | ≥ 1.2 | 
Cc1c(=O)n(C)c(Nc2ccc(I)cc2F)c2c(=O)n(C3CC3)c(=O)n(-c3ccc4oc(=O)[nH]c4c3)c12 [Example 4-126] | < 10 | ≥ 1.5 |  | < 10 | ≥ 1.5 |  |  | ≥ 1.2 | 
CC(=O)Nc1cccc(-n2c(=O)n(C3CC3)c(=O)c3c(Nc4ccc(I)cc4F)n(C)c(=O)c(C)c32)c1.CC(=O)O [N-{3-[3-Cyclopropyl-5-(2-fluoro-4-iodo-phenylamino)-6,8-dimethyl-2,4,7-trioxo-3,4,6,7-tetrahydro-2H-pyrido[4,3-d]pyrimidin-1-yl]-phenyl}-acetamide Acetic Acid Solvate] |  |  |  |  |  |  |  |  | 0.57
